Assay results published in patent publication US20060148858A1, “1, 2-Azole derivatives with hypoglycemic and hypolipidemic activity” (priority 2002, published 2006).

| SMILES | melting point |
| --- | --- |
| CC(C)c1nn(-c2ccc(C(F)(F)F)cn2)cc1CCCOc1nn(C2CCCCC2)cc1CC(=O)O [Example 317, [1-cyclohexyl-3-(3-{3-isopropyl-1-[5-(trifluoromethyl)-2-pyridinyl]-1H-pyrazol-4-yl}propoxy)-1H-pyrazol-4-yl]acetic acid] | 116 to 117 °C |
| CCCc1nn(-c2ccc(C(F)(F)F)cn2)cc1CCCOc1nn(C2CCCCC2)cc1CC(=O)O [Example 320, [1-cyclohexyl-3-(3-{3-propyl-1-[5-(trifluoromethyl)-2-pyridinyl]-1H-pyrazol-4-yl}propoxy)-1H-pyrazol-4-yl]acetic acid] | 127 to 128 °C |
| CCCc1nn(-c2ccc(C(F)(F)F)cn2)cc1CCCOc1c(CC(=O)O)cnn1C [Example 321, [1-methyl-5-(3-{3-propyl-1-[5-(trifluoromethyl)-2-pyridinyl]-1H-pyrazol-4-yl}propoxy)-1H-pyrazol-4-yl]acetic acid] | 136 to 138 °C |
| COc1cccc(CCC(=O)O)c1OCCCc1cn(-c2ccc(C(F)(F)F)cn2)nc1C(C)C [Example 323, 3-[2-(3-{3-isopropyl-1-[5-(trifluoromethyl)-2-pyridinyl]-1H-pyrazol-4-yl}propoxy)-3-methoxyphenyl]propanoic acid] | 112 to 113 °C |
| COc1ccc(CCC(=O)O)cc1OCCCc1cn(-c2ccc(C(F)(F)F)cn2)nc1C(C)C [Example 324, 3-[3-(3-{3-isopropyl-1-[5-(trifluoromethyl)-2-pyridinyl]-1H-pyrazol-4-yl}propoxy)-4-methoxyphenyl]propanoic acid] | 93 to 94 °C |
| Cn1ncc(CC(=O)O)c1OCCCc1cn(-c2ccc(C(F)(F)F)cn2)nc1C1CCCCC1 [Example 325, [5-(3-{3-cyclohexyl-1-[5-(trifluoromethyl)-2-pyridinyl]-1H-pyrazol-4-yl}propoxy)-1-methyl-1H-pyrazol-4-yl]acetic acid] | 137 to 138 °C |
| CCCc1nn(-c2ccc(C(F)(F)F)cn2)cc1CCCOc1c(CC(=O)O)cnn1CC [Example 326, [1-ethyl-5-(3-{3-propyl-1-[5-(trifluoromethyl)-2-pyridinyl]-1H-pyrazol-4-yl}propoxy)-1H-pyrazol-4-yl]acetic acid] | 125 to 126 °C |
| Cc1cnn(CC(=O)O)c1OCCCc1cn(-c2ccc(C(F)(F)F)cn2)nc1C(C)C [Example 327, [5-(3-{3-isopropyl-1-[5-(trifluoromethyl)-2-pyridinyl]-1H-pyrazol-4-yl}propoxy)-4-methyl-1H-pyrazol-1-yl]acetic acid] | 123 to 124 °C |
| CCc1cnn(CC(=O)O)c1OCCCc1cn(-c2ccc(C(F)(F)F)cn2)nc1C(C)C [Example 328, [4-ethyl-5-(3-{3-isopropyl-1-[5-(trifluoromethyl)-2-pyridinyl]-1H-pyrazol-4-yl}propoxy)-1H-pyrazol-1-yl]acetic acid] | 111 to 112 °C |
| CCCc1nn(-c2ccc(C(F)(F)F)cn2)cc1CCCOc1c(C)cnn1CC(=O)O [Example 329, [4-methyl-5-(3-{3-propyl-1-[5-(trifluoromethyl)-2-pyridinyl]-1H-pyrazol-4-yl}propoxy)-1H-pyrazol-1-yl]acetic acid] | 145 to 146 °C |
| CCc1cnn(CC(=O)O)c1OCCCc1cn(-c2ccc(C(F)(F)F)cn2)nc1C(CC)CC [Example 330, [4-ethyl-5-(3-{3-(1-ethylpropyl)-1-[5-(trifluoromethyl)-2-pyridinyl]-1H-pyrazol-4-yl}propoxy)-1H-pyrazol-1-yl]acetic acid] | 124 to 125 °C |
| CCCc1nn(-c2ccc(C(F)(F)F)cn2)cc1CCCOc1c(CC)cnn1CC(=O)O [Example 331, [4-ethyl-5-(3-{3-propyl-1-[5-(trifluoromethyl)-2-pyridinyl]-1H-pyrazol-4-yl}propoxy)-1H-pyrazol-1-yl]acetic acid] | 135 to 136 °C |
| COc1cccc(CC(=O)O)c1OCCCc1cn(-c2ncc(Cl)cc2Cl)nc1C(C)C [Example 336, (2-{3-[1-(3,5-dichloro-2-pyridyl)-3-isopropyl-1H-pyrazol-4-yl]propoxy}-3-methoxyphenyl)acetic acid] | 105 to 106 °C |
| CCc1cccc(CC(=O)O)c1OCCCc1cn(-c2ccc(C(F)(F)F)nn2)nc1C(CC)CC [Example 341, [3-ethyl-2-(3-{3-(1-ethylpropyl)-1-[6-(trifluoromethyl)pyridazin-3-yl]-1H-pyrazol-4-yl}propoxy)phenyl]acetic acid] | 93 to 94 °C |
| COc1cccc(CC(=O)O)c1OCCCc1cn(-c2nnc(C(F)(F)F)s2)nc1C(C)C [Example 344, [2-(3-{3-isopropyl-1-[5-(trifluoromethyl)-1,3,4-thiadiazol-2-yl]-1H-pyrazol-4-yl}propoxy)-3-methoxyphenyl]acetic acid] | 114 to 115 °C |
| COc1cccc(CC(=O)O)c1OCCCc1cn(-c2ccc(C(F)(F)F)cn2)nc1C(C)(C)C [Example 345, [2-(3-{3-tert-butyl-1-[5-(trifluoromethyl)-2-pyridinyl]-1H-pyrazol-4-yl}propoxy)-3-methoxyphenyl]acetic acid] | 94 to 95 °C |
| Cc1cccc(CC(=O)O)c1OCCCc1cn(-c2ccc(C(F)(F)F)cn2)nc1C(C)(C)C [Example 346, [2-(3-{3-tert-butyl-1-[5-(trifluoromethyl)-2-pyridinyl]-1H-pyrazol-4-yl}propoxy)-3-methylphenyl]acetic acid] | 86 to 87 °C |
| CCc1cccc(CC(=O)O)c1OCCCc1cn(-c2ccc(C(F)(F)F)cn2)nc1C(C)(C)C [Example 347, [2-(3-{3-tert-butyl-1-[5-(trifluoromethyl)-2-pyridinyl]-1H-pyrazol-4-yl}propoxy)-3-ethylphenyl]acetic acid] | 98 to 99 °C |
| CCC(CC)c1nn(-c2ccc(C(F)(F)F)cn2)cc1CCCOc1c(CC(=O)O)ccnc1C [Example 348, [3-(3-{3-(1-ethylpropyl)-1-[5-(trifluoromethyl)-2-pyridinyl]-1H-pyrazol-4-yl}propoxy)-2-methyl-4-pyridinyl]acetic acid] | 78 to 79 °C |
| CCC(CC)c1nn(-c2ccc(Br)cn2)cc1CCCOc1c(C)cccc1CC(=O)O [Example 353, (2-{3-[1-(5-bromo-2-pyridinyl)-3-(1-ethylpropyl)-1H-pyrazol-4-yl]propoxy}-3-methylphenyl) acetic acid] | 120 to 121 °C |
| CCc1cccc(CC(=O)O)c1OCCCc1cn(-c2ccc(Br)cn2)nc1C(CC)CC [Example 355, (2-{3-[1-(5-bromo-2-pyridinyl)-3-(1-ethylpropyl)-1H-pyrazol-4-yl]propoxy}-3-ethylphenyl)acetic acid] | 123 °C |
| CC(C)c1cccc(CC(=O)O)c1OCCCc1cn(-c2ccc(C(F)(F)F)cn2)nc1C(C)C [Example 357, [3-isopropyl-2-(3-{3-isopropyl-1-[5-(trifluoromethyl)-2-pyridinyl]-1H-pyrazol-4-yl}propoxy)phenyl]acetic acid] | 108 to 109 °C |
| CCCc1nn(-c2ccc(C(F)(F)F)cn2)cc1CCCOc1c(CC(=O)O)cccc1C(C)C [Example 359, [3-isopropyl-2-(3-{3-propyl-1-[5-(trifluoromethyl)-2-pyridinyl]-1H-pyrazol-4-yl}propoxy)phenyl]acetic acid] | 102 to 103 °C |
| COc1cccc(CC(=O)O)c1OCCCc1cn(-c2cc(C(F)(F)F)ccn2)nc1C(C)C [Example 363, [2-(3-{3-isopropyl-1-[4-(trifluoromethyl)-2-pyridinyl]-1H-pyrazol-4-yl}propoxy)-3-methoxyphenyl]acetic acid] | 127 to 128 °C |
| COc1cccc(CC(=O)O)c1OCCCc1cn(-c2cccc(C(F)(F)F)n2)nc1C(C)C [Example 365, [2-(3-{3-isopropyl-1-[6-(trifluoromethyl)-2-pyridinyl]-1H-pyrazol-4-yl}propoxy)-3-methoxyphenyl]acetic acid] | 95 to 97 °C |
| COc1cccc(CC(=O)O)c1OCCCc1cn(-c2ccc(C(F)(F)F)nn2)nc1C(C)(C)C [Example 366, [2-(3-{3-tert-butyl-1-[6-(trifluoromethyl)pyridazin-3-yl]-1H-pyrazol-4-yl}propoxy)-3-methoxyphenyl]acetic acid] | 131 to 132 °C |
| Cc1cccc(CC(=O)O)c1OCCCc1cn(-c2ccc(Cl)cn2)nc1C(C)(C)C [Example 371, (2-{3-[3-tert-butyl-1-(5-chloropyridin-2-yl)-1H-pyrazol-4-yl]propoxy}-3-methylphenyl)acetic acid] | 112 to 113 °C |
| Cc1nn(-c2ccccn2)cc1COc1ccc(CCC(=O)O)cc1 [Example 372, 3-{4-[3-methyl-1-(2-pyridinyl)-1H-pyrazol-4-ylmethoxy]phenyl}propionic acid] | 129 to 130 °C |
| COc1ccc(OC(C)(C)C(=O)O)cc1OCCCc1cn(-c2ccc(C(F)(F)F)cn2)nc1C(C)C [Example 376, 2-[3-(3-{3-isopropyl-1-[5-(trifluoromethyl)-2-pyridinyl]-1H-pyrazol-4-yl}propoxy)-4-methoxyphenoxy]-2-methylpropanoic acid] | 106 to 107 °C |
| CCc1ccc(OC(C)(C)C(=O)O)cc1OCCCc1cn(-c2ccc(C(F)(F)F)cn2)nc1C(C)C [Example 377, 2-[4-ethyl-3-(3-{3-isopropyl-1-[5-(trifluoromethyl)-2-pyridinyl]-1H-pyrazol-4-yl}propoxy)phenoxy]-2-methylpropanoic acid] | 115 to 116 °C |
